From patent US8552013B2, “Heterocyclic compounds based on N6-substituted adenine, methods of their preparation, their use for preparation of drugs, cosmetic preparations and growth regulators, pharmaceutical preparations, cosmetic preparations and growth regulators containing these compounds” (USTAV Experimentalni Botaniky Akademie Ved Ceske Republiky, priority 2001, dated 2013)

How the values were obtained:
HOS = assay: Calcein AM cytotoxicity, HOS; type: cell-based; conditions: Homo sapiens, HOS, 72 h
[1] = system: Triticum aestivum cv. Hereward leaf tips; assay: Retention of chlorophyll in excised wheat leaf tips; type: in vivo; conditions: chlorophyll retention at the concentration with highest activity
Procedure, shortened: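 Tips of first leaves from 7-day wheat (cv. Hereward) seedlings kept on compound solutions (10^−8 to 10^−4 M, from DMSO stock) for 96 h in the dark at 25 °C. Chlorophyll extracted in 80% ethanol at 80 °C and read at 665 nm. Activity at the best concentration expressed relative to 10^−4 M BAP (100%), five replicates.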

[2] = system: Amaranthus caudatus cotyledon/hypocotyl explants; assay: Amaranthus bioassay, betacyanin content; type: in vivo; conditions: betacyanin content at the concentration with highest activity
[3] = system: tobacco callus Nicotiana tabacum L. cv. Wisconsin 38; assay: Cytokinin-dependent tobacco callus growth; type: cell-based; conditions: fresh callus weight at the concentration with highest activity

| SMILES | IC50 (HOS) [µM] | Activity (%) [10^−4 mol · l^−1 BAP = 100%] [1] | activity (%) [10^−5 mol · l^−1 BAP = 100%] [2] | Activity (%) [10^−4 mol · l^−1 BAP = 100%] [3] |
| --- | --- | --- | --- | --- |
| Fc1ccccc1CNc1ncnc2nc[nH]c12 [6-(2-fluorobenzylamino)purine] | > 167 | 169 (±20) % | 116 (±3) % | 111 (±21) % |
| Cc1ccccc1CNc1ncnc2nc[nH]c12 [6-(2-methylbenzylamino)purine] | > 167 | 158 (±29) % | 98 (±22) % | 118 (±3) % |
| Fc1cccc(CNc2ncnc3nc[nH]c23)c1 [6-(3-fluorobenzylamino)purine] | > 167 | 200 (±25) % | 140 (±5) % | 135 (±8) % |
| Ic1cccc(CNc2ncnc3nc[nH]c23)c1 [6-(3-iodobenzylamino)purine] | > 167 | 83.5 (±23) % | 79 (±3) % | 76 (±8) % |
| COc1cccc(CNc2ncnc3nc[nH]c23)c1 [6-(3-methoxybenzylamino)purine] | > 167 | 178 (±16) % | 90 (±16) % | 76 (±20) % |
| Cc1ccc(CNc2ncnc3nc[nH]c23)cc1 [6-(4-methylbenzylamino)purine] | > 167 | 35 (±23) % | 26 (±10) % | 52 (±8) % |
| Oc1cccc(CNc2ncnc3nc[nH]c23)c1 [meta-topolin, 6-(3-hydroxybenzylamino)purine] | > 167 | – | – | – |
| Oc1ccccc1CNc1ncnc2nc[nH]c12 [ortho-topolin, 6-(2-hydroxybenzylamino)purine] | > 167 | – | – | – |
